Target: T1, Human HPK1, catalytic domain (Homo sapiens, UniProt Q92918)
T1 construct: purchased Carna
T1 sequence (Q92918 1-346): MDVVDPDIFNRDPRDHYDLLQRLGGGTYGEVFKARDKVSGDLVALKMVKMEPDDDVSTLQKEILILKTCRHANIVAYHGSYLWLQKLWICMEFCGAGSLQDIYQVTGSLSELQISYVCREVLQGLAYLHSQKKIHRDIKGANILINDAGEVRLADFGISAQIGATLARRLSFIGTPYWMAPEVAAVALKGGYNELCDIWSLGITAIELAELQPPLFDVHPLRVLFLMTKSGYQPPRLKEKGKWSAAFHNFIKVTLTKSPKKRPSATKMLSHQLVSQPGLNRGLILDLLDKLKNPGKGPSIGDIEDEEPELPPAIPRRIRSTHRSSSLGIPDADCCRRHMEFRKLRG
Experiment: HPK1-SLP76 TR-FRET assay
Type: biochemical
Conditions: 75 pM HPK1, 10 uM ATP, 10 nM SLP76, 30 min compound pre-incubation

| SMILES | IC50 |
| --- | --- |
| NC(=O)c1cnc(Nc2ccc(F)c(Cl)c2)nc1Nc1cccc2c1CCNC2=O [Example 25-6, 2-[(3-chloro-4-fluorophenyl)amino]-4-[(1-oxo-1,2,3,4-tetrahydroisoquinolin-5-yl)amino]pyrimidine-S-carboxamide] | 580 nM |
| COc1cc2c(cc1Nc1ncc(C(N)=O)c(N[C@@H]3CCc4ccccc43)n1)CN(C)CC2 [Example 26-67, 4-{[(1R)-2,3-dihydro-1H-inden-1-yl]amino}-2-[(6-methoxy-2-methyl-1,2,3,4-tetrahydroisoquinolin-7-yl)amino]pyrimidine-5-carboxamide] | 4.74 nM |
| NC(=O)c1cnc(Nc2cccc(F)c2)nc1Nc1cccc2c1CCNC2=O [Example 25-10, 2-[(3-fluorophenyl)amino]-4-[(1-oxo-1,2,3,4-tetrahydroisoquinolin-5-yl)amino]pyrimidine-5-carboxamide] | 1.22 nM |
| COc1ccc(C(N)=O)cc1Nc1ncc(C(N)=O)c(Nc2ccccc2Br)n1 [Example 7-95, 4-[(2-bromophenyl)amino]-2-[(5-carbamoyl-2-methoxyphenyl)amino]pyrimidine-5-carboxamide] | 548 nM |
| COc1cc2c(cc1Nc1ncc(C(N)=O)c(N[C@H](C)c3cccc(F)c3F)n1)CN(C)CC2 [Example 26-20, 4-{[(1R)-1-(2,3-difluorophenyl)ethyl]amino}-2-[(6-methoxy-2-methyl-1,2,3,4-tetrahydroisoquinolin-7-yl)amino]pyrimidine-5-carboxamide] | 0.45 nM |
| COc1cc2c(cc1Nc1ncc(C(N)=O)c(Nc3cccc(CN(C)CC(=O)O)c3)n1)CN(C)CC2 [Example 7-34, N-{[3-({5-carbamoyl-2-[(6-methoxy-2-methyl-1,2,3,4-tetrahydroisoquinolin-7-yl)amino]pyrimidin-4-yl}amino)phenyl]methyl}-N-methylglycine] | 2.43 nM |
| CN1CCc2cc(F)c(Nc3ncc(C(N)=O)c(NC4CCc5cc(F)c(F)cc54)n3)cc2C1 (centres unmarked) [Example 26-54, 4-[(5,6-difluoro-2,3-dihydro-1H-inden-1-yl)amino]-2-[(6-fluoro-2-methyl-1,2,3,4-tetrahydroisoquinolin-7-yl)amino]pyrimidine-5-carboxamide] | 0.97 nM |
| COc1cc2c(cc1Nc1ncc(C(=O)NN)c(Nc3ccccc3)n1)CN(C)CC2 [Example 18-1, 2-((6-Methoxy-2-methyl-1,2,3,4-tetrahydroisoquinolin-7-yl)amino)-4-(phenylamino)pyrimidine-5-carbohydrazide] | 23.6 nM |
| COc1cc2c(cc1Nc1ncc(C(N)=O)c(Nc3ccc(F)c(C#N)c3)n1)CN(C)CC2 [Example 7-26, 4-[(3-cyano-4-fluorophenyl)amino]-2-[(6-methoxy-2-methyl-1,2,3,4-tetrahydroisoquinolin-7-yl)amino]pyrimidine-5-carboxamide] | 15 nM |
| COc1cc2c(cc1Nc1ncc(C(N)=O)c(Nc3ccccc3-n3ccnn3)n1)CN(C)CC2 [Example 7-77, 2-[(6-methoxy-2-methyl-1,2,3,4-tetrahydroisoquinolin-7-yl)amino]-4-{[2-(1H-1,2,3-triazol-1-yl)phenyl]amino}pyrimidine-5-carboxamide] | 0.23 nM |
| COc1cc2c(cc1Nc1ncc(C(N)=O)c(Nc3ccccc3OC(F)F)n1)CN(C)CC2 [Example 7-114, 4-{[2-(difluoromethoxy)phenyl]amino}-2-[(6-methoxy-2-methyl-1,2,3,4-tetrahydroisoquinolin-7-yl)amino]pyrimidine-5-carboxamide] | 0.09 nM |
| NC(=O)c1cnc(Nc2ccc(C(F)(F)F)cc2)nc1Nc1cccc2c1CCNC2=O [Example 25-7, 4-[(1-oxo-1,2,3,4-tetrahydroisoquinolin-5-yl)amino]-2-{[4-(trifluoromethyl)phenyl]amino}pyrimidine-5-carboxamide] | 474 nM |
| COc1cc2c(cc1Nc1ncc(C(N)=O)c(NC3CCc4ccc(F)cc43)n1)CN(C)CC2 (centres unmarked) [Example 26-25, 4-[(6-fluoro-2,3-dihydro-1H-inden-1-yl)amino]-2-[(6-methoxy-2-methyl-1,2,3,4-tetrahydroisoquinolin-7-yl)amino]pyrimidine-5-carboxamide] | 0.22 nM |
| COc1cc(N2CCNCC2)ccc1Nc1ncc(C(N)=O)c(Nc2ccccc2Br)n1 [Example 7-10, 4-[(2-bromophenyl)amino]-2-{[2-methoxy-4-(piperazin-1-yl)phenyl]amino}pyrimidine-5-carboxamide] | 34.2 nM |
| COc1cc2c(cc1Nc1ncc(C(N)=O)c(Nc3cccc4nnc(C)cc34)n1)CN(C)CC2 [Example 7-6, 2-[(6-methoxy-2-methyl-1,2,3,4-tetrahydroisoquinolin-7-yl)amino]-4-[(3-methylcinnolin-5-yl)amino]pyrimidine-5-carboxamide] | 70.5 nM |
| COc1cc2c(cc1Nc1ncc(C(N)=O)c(Nc3ccccc3Br)n1)CN(C(=O)C1(N(C)C)CCC1)CC2 [Example 12-7, 4-[(2-bromophenyl)amino]-2-({2-[1-(dimethylamino)cyclobutane-1-carbonyl]-6-methoxy-1,2,3,4-tetrahydroisoquinolin-7-yl}amino)pyrimidine-5-carboxamide] | 1.96 nM |
| COc1cc2c(cc1Nc1ncc(C(N)=O)c(Nc3cc(C)nn3-c3ccccc3)n1)CN(C)CC2 [Example 7-92, 2-((6-methoxy-2-methyl-1,2,3,4-tetrahydroisoquinolin-7-yl)amino)-4-((3-methyl-1-phenyl-1H-pyrazol-5-yl)amino)pyrimidine-5-carboxamide] | 10.9 nM |
| COc1cc2c(cc1Nc1ncc(C(N)=O)c(Nc3cccc4nn[nH]c34)n1)CN(C)CC2 [Example 7-5, 4-[(1H-benzotriazol-7-yl)amino]-2-[(6-methoxy-2-methyl-1,2,3,4-tetrahydroisoquinolin-7-yl)amino]pyrimidine-5-carboxamide] | 0.5 nM |
| CCC(C)c1ccccc1Nc1nc(Nc2cc3c(cc2OC)CCN(C)C3)ncc1C(N)=O (centres unmarked) [Example 7-23, 4-{[2-(butan-2-yl)phenyl]amino}-2-[(6-methoxy-2-methyl-1,2,3,4-tetrahydroisoquinolin-7-yl)amino]pyrimidine-5-carboxamide] | 0.17 nM |
| COc1cc2c(cc1Nc1ncc(C(N)=O)c(Nc3ccccc3SC(F)(F)F)n1)CN(C)CC2 [Example 7-113, 2-[(6-methoxy-2-methyl-1,2,3,4-tetrahydroisoquinolin-7-yl)amino]-4-({2-[(trifluoromethyl)sulfanyl]phenyl}amino)pyrimidine-5-carobxamide] | 0.13 nM |
| COc1cc2c(cc1Nc1ncc(C(N)=O)c(N[C@H]3CCc4ccccc43)n1)CN(C)CC2 [Example 26-37, 4-{[(1S)-2,3-dihydro-1H-inden-1-yl]amino}-2-[(6-methoxy-2-methyl-1,2,3,4-tetrahydroisoquinolin-7-yl)amino]pyrimidine-5-carboxamide] | 0.38 nM |
| COc1cc2c(cc1Nc1ncc(C(N)=O)c(NC3C[C@@H]4CC[C@H]3C4)n1)CN(C)CC2 (stereo partly drawn) [Example 26-14, 4-{[(1S,4R)-bicyclo[2.2.1]heptan-2-yl]amino}-2-[(6-methoxy-2-methyl-1,2,3,4-tetrahydroisoquinolin-7-yl)amino]pyrimidine-5-carboxamide] | 0.14 nM |
| COc1cc2c(cc1Nc1ncc(C(N)=O)c(Nc3ccccc3N3C(=O)OC[C@@H]3C)n1)CN(C)CC2 [Example 7-2, 2-[(6-methoxy-2-methyl-1,2,3,4-tetrahydroisoquinolin-7-yl)amino]-4-({2-[(4S)-4-methyl-2-oxo-1,3-oxazolidin-3-yl]phenyl}amino)pyrimidine-5-carboxamide] | 0.15 nM |
